Data on two compounds can be found in paper PMC11492426, “Design, synthesis, and biological evaluation of novel quinoline-based EGFR/HER-2 dual-target inhibitors as potential anti-tumor agents” (RSC Advances, 2024).

Data set [1] relates to A-549 lung cancer cell line. Kind of data set: Antiproliferative assay, A-549. Format: cell-based. To be noted: Homo sapiens, A549; A-549 lung cancer cells; read-out: Antiproliferative activity IC50 ± SEM, A-549.
Another data set deals with Caspase-3. The data set is described as follows: Caspase-3 activation assay in MCF-7 cells. Type of data set: cell-based, human. The note with it: for Caspase-3 Conc.: treated at IC50 concentration; for Caspase-3 Fold change: versus untreated control.
In the next data set the test system is Bax. Kind of data set: Bax activation assay in MCF-7 cells. Format: cell-based, human. The note with it: for Bax Conc.: treated at IC50 values; for Bax Fold change: versus untreated control. The procedure: This lysate was diluted in Standard Diluent Buffer over the range of the assay and measured for human active caspase-8 content. (Cells are Plated in a density of 1.2 – 1.8 × 10,000 cells/well in a volume of 100µl complete growth medium + 100 ul of the tested compound per well in a 96-well plate for 24 hours before the enzyme assay for […].). […]
4.2.7. Bax activation assay
Bring all reagents, except the human Bax-α Standard, to room temperature for at least 30 minutes prior to opening. The human Bax-α Standard solution should not be left at room temperature for more than 10 minutes. All standards, controls and samples should be run in duplicate. Refer to the Assay Layout Sheet to determine the number of wells to be used and put any remaining wells with the desiccant back into the pouch and seal the ziploc. Store unused wells at 4 °C. Pipet 100 μL of Assay Buffer into the S0 (0 pg/mL standard) wells. Pipet 100 μL of Standards #1 through #6 into the appropriate wells. Pipet 100 μL of the Samples into the appropriate wells. Tap the plate gently to mix the contents. Seal the plate and incubate at room temperature on a plate shaker for 1 hour at ~500 rpm. Empty the contents of the wells and wash by adding 400 μL of wash solution to every well.
Repeat the wash 4 more times for a total of 5 washes. After the final wash, empty or aspirate the wells and firmly tap the plate on a lint free paper towel to remove any remaining wash buffer. Pipet 100 μL of yellow Antibody into each well, except the Blank. Seal the plate and incubate at room temperature on a plate shaker for 1 hour at ~500 rpm. Empty the contents of the wells and wash by adding 400 μL of wash solution to every well. Repeat the wash 4 more times for a total of 5 washes.
After the final wash, empty or aspirate the wells and firmly tap the plate on a lint free paper towel to remove any remaining wash buffer. Add 100 μL of blue Conjugate to each well, except the Blank.
Seal the plate and incubate at room temperature on a plate shaker for 30 minutes at ~500 rpm. Empty the contents of the wells and wash by adding 400 μL of wash solution to every well. Repeat the wash 4 more times for a total of 5 washes. After the final wash, empty or aspirate the wells and firmly tap […]
the plate on a lint free paper towel to remove any remaining wash buffer. Pipet 100 μL of Substrate Solution into each well. Incubate for 30 minutes at room temperature on a plate shaker at ~500 rpm.
Pipet 100 μL Stop Solution to each well. Blank the plate reader against the Blank wells, read the optical density at 450 nm. Calculate the average net Optical Density (OD) bound for each standard and sample by subtracting the average Blank OD from the average OD for each standard and sample.
Using linear graph paper, plot the Average Net OD for each standard versus Bax concentration in each standard. Approximate a straight line through the points. The concentration of Bax in the unknowns can be determined by interpolation. […]
Remove plate cover and empty the wells. […]
Incubate the microwell strips at room temperature (18° to 25°C) for about 15 minutes, if

One may read the IC50 as the midpoint of a concentration-inhibition curve. Usually melting point stands for the temperature of the solid-liquid transition. Compound `O=c1[nH]c2ccccc2c(O)c1/C=N/c1nc(-c2ccncc2)n[nH]1` [Compound 3e, (E)-4-hydroxy-3-(((3-(pyridin-4-yl)-1H-1,2,4-triazol-5-yl)imino)methyl)quinolin-2(1H)-one] returned a melting point of 327 to 329 °C. Further, the IC50 in data set [1] came out at 0.032 ± 0.003 µM. For the same compound, in the data set on Caspase-3, the “Caspase-3 Conc.” value turned out to be 587 ± 5 pg/mL and the “Caspase-3 Fold change” value was 9. Further, in the data set on Bax, the “Bax Conc.” value was found to be 316 ± 3 pg/mL and the “Bax Fold change” value was found to be 35.

As to `O=c1[nH]c2ccccc2c(O)c1C=Nc1ccc(NS(=O)(=O)c2ncccn2)cc1` [Compound 5a, N-(4-(((4-hydroxy-2-oxo-1,2-dihydroquinolin-3-yl)methylene)amino)phenyl) pyrimidine-2-sulfonamide], the IC50 in data set [1] was 0.025 ± 0.002 µM. In the data set with Caspase-3, the “Caspase-3 Conc.” value amounted to 710 ± 6 pg/mL and the “Caspase-3 Fold change” value is on record as 11. Also, in the data set with Bax, the “Bax Conc.” value was determined as 350 ± 3 pg/mL and the “Bax Fold change” value was 39.
